This experiment relates to A549 cells. Kind of experiment: CDDP in vitro anticancer activity assay (MTT). It is filed as cell-based, human. The protocol: A549 cells were placed in a 96-well culture plat at a density of 5×10^4 cells per well in 0.1 ml of growth medium and cultured for 24 hours. […] The percentage of cell viability is illustrated as the ratio of the absorbance of treated cells relative to the absorbance of non-treated cells.

Molecules are shown by their SMILES. Where two headings read alike, the source gives them in different places.

As to `[NH2][Pt]([NH2])([Cl])[Cl]` [CDDP, Cisplatin], the IC50 was 13.6 µM (48 hours, read-out: IC50 Value, 48 hours) and 5.2 µM (72 hours, read-out: IC50 Value, 72 hours).

(Values after patent US20100209519A1, “PHARMACEUTICAL COMPOSITION FOR INHALATION DELIVERY AND FABRICATION METHOD THEREOF” (NATIONAL TAIWAN UNIVERSITY, priority 2009, published 2010).)
